From article PMC12396409, “Screening and hit evaluation of a microbial metabolite library against the pathogenic Plasmodium falciparum and Toxoplasma gondii parasites” (International Journal for Parasitology: Drugs and Drug …, 2025)
Read-outs that look alike come from different tables or passages of the source.

Key:
[1] = system: P. falciparum 3D7 parasites; assay: P. falciparum growth inhibition assay, 1-cycle (72 h treatment), SYBR DNA staining (library screen at 2 μg/mL and dose-response); assay type: cell-based, Plasmodium falciparum; details: 72 h; for activity at 2 µg/mL: Plasmodium falciparum, 3D7, 72 h
[2] = system: P. falciparum 3D7 parasites; assay: P. falciparum growth inhibition assay, 2-cycle (120 h treatment), delayed-death screen and dose-response; assay type: cell-based, Plasmodium falciparum; details: for activity at 2 µg/mL: Plasmodium falciparum, 3D7, 120 h
[3] = system: T. gondii RH strain (RH-Tub-eYFP) tachyzoites; assay: microbe, parasite or virus in culture; assay type: cell-based, Toxoplasma gondii; details: 72 h; for percent parasite growth at 2 µg/mL: Toxoplasma gondii
[4] = library screen at 2 μg/mL, % growth, replicate 1
[5] = library screen at 2 μg/mL, % growth, replicate 2
[6] = library screen at 2 μg/mL, 120 h, % growth, replicate 1
[7] = library screen at 2 μg/mL, 120 h, % growth, replicate 2
[8] = P. falciparum, screen at 2 μg/mL, replicate 1
[9] = P. falciparum, screen at 2 μg/mL, replicate 2
[10] = P. falciparum, 120 h, screen at 2 μg/mL, replicate 1
[11] = P. falciparum, 120 h, screen at 2 μg/mL, replicate 2
[12] = T. gondii, screen at 2 μg/mL, replicate 1
[13] = T. gondii, screen at 2 μg/mL, replicate 2
[14] = P. falciparum, parasite screen 2 μg/mL, % growth, replicate 1
[15] = P. falciparum, parasite screen 2 μg/mL, % growth, replicate 2
[16] = P. falciparum, 120 h, parasite screen 2 μg/mL, % growth, replicate 1
[17] = P. falciparum, 120 h, parasite screen 2 μg/mL, % growth, replicate 2
[18] = T. gondii, parasite screen 2 μg/mL, % growth, replicate 1
[19] = T. gondii, parasite screen 2 μg/mL, % growth, replicate 2

CC[C@H](C)[C@H]1O[C@]2(C=C[C@@H]1C)C[C@@H]1C[C@@H](C/C=C(\C)[C@@H](O[C@H]3C[C@H](OC)[C@@H](O[C@H]4C[C@H](OC)[C@H](NC(C)=O)[C@H](C)O4)[C@H](C)O3)[C@@H](C)/C=C/C=C3\CO[C@@H]4[C@H](O)C(C)=C[C@@H](C(=O)O1)[C@]34O)O2 [Eprinomectin B1a, reference compound]
1) Growth (%) at 72 h ([1]; P. falciparum, 2 μg/mL): 42.60%
Pf_72h_%Growth_Rep1 [1, 4]: 53.90%
Pf_72h_%Growth_Rep2 [1, 5]: 31.29%
3) Fold change (72 h/120 h) [2]: 2.2
2) Growth (%) at 120 h ([2]; P. falciparum, 2 μg/mL, 120 h): 19.45%
Pf_120h_%Growth_Rep1 [2, 6]: 26.03%
Pf_120h_%Growth_Rep2 [2, 7]: 12.86%
Tg_72h_%Growth_Rep1 [3, 4]: 139.55%
Tg_72h_%Growth_Rep2 [3, 5]: 101.56%

CC(/C=C/C(=O)NO)=C\[C@@H](C)C(=O)c1ccc(N(C)C)cc1 [trichostatin A, reference compound]
activity in the screen against P. falciparum ([1]; 2 μg/mL, active = ≥80 % growth inhibition): active
Pf_72h_%Growth_Rep1 [1, 8]: 1.39%
Pf_72h_%Growth_Rep2 [1, 9]: -9.74%
Pf_120h_%Growth_Rep1 [2, 10]: 8.88%
Pf_120h_%Growth_Rep2 [2, 11]: 11.39%
Tg_72h_%Growth_Rep1 [3, 12]: 0.84%
Tg_72h_%Growth_Rep2 [3, 13]: 0.67%

C=C(C)[C@@H]1CC[C@]2(C(=O)OC)CC[C@]3(C)[C@H](CC[C@@H]4[C@@]5(C)CC[C@H](O)C(C)(C)[C@@H]5CC[C@]43C)[C@@H]12 [Betulinate, Methyl]
Pf_72h_%Growth_Rep1 [1, 4]: 96.31%
Pf_72h_%Growth_Rep2 [1, 5]: 86.01%
Pf_120h_%Growth_Rep1 [2, 6]: 150.46%
Pf_120h_%Growth_Rep2 [2, 7]: 92.78%
Tg_72h_%Growth_Rep1 [3, 4]: 84.95%
Tg_72h_%Growth_Rep2 [3, 5]: 84.36%

CC(=O)C1C(C)=CC(=O)c2c1c(-c1c3c(c(O)c4c(O)cccc14)C(=O)CC(C)(O)C3C(C)=O)c1cccc(O)c1c2O (stereo not shown) [Setomimycin]
Pf_72h_%Growth_Rep1 [1, 14]: 8.25%
Pf_72h_%Growth_Rep2 [1, 15]: 3.46%
Pf_120h_%Growth_Rep1 [2, 16]: 7.52%
Pf_120h_%Growth_Rep2 [2, 17]: 6.30%
Tg_72h_%Growth_Rep1 [3, 18]: 70.47%
Tg_72h_%Growth_Rep2 [3, 19]: 40.70%

CC(=O)N[C@H]1[C@H](O[C@@H]2c3ccc(c(Cl)c3)Oc3cc4cc(c3O[C@@H]3O[C@H](CO)[C@@H](O)[C@H](O)[C@H]3NC(=O)CCCCCCC(C)C)Oc3ccc(cc3Cl)C[C@H]3NC(=O)[C@H](N)c5ccc(O)c(c5)Oc5cc(O)cc(c5)[C@H](NC3=O)C(=O)N[C@H]4C(=O)N[C@H]3C(=O)N[C@@H]2C(=O)N[C@H](C(=O)O)c2cc(O)cc(O[C@H]4O[C@H](CO)[C@@H](O)[C@H](O)[C@@H]4O)c2-c2cc3ccc2O)O[C@H](CO)[C@@H](O)[C@@H]1O [Teicoplanin A2-2]
Pf_72h_%Growth_Rep1 [1, 14]: 72.71%
Pf_72h_%Growth_Rep2 [1, 15]: 85.08%
Pf_120h_%Growth_Rep1 [2, 16]: 148.39%
Pf_120h_%Growth_Rep2 [2, 17]: 93.23%
Tg_72h_%Growth_Rep1 [3, 18]: 90.69%
Tg_72h_%Growth_Rep2 [3, 19]: 106.25%

C/C=C/[C@H]1O[C@@](O)([C@@H](C)[C@H](O)[C@H](C)[C@H]2OC(=O)/C(OC)=C/C(C)=C/[C@@H](C)[C@@H](O)[C@@H](CC)[C@@H](O)[C@H](C)C/C(C)=C/C=C/[C@@H]2OC)C[C@@H](O[C@H]2C[C@@H](O)[C@H](OC(N)=O)[C@@H](C)O2)[C@@H]1C [Concanamycin A]
activity at 2 µg/mL ([1]; P. falciparum, screen at 2 μg/mL, replicate 1, read-out: Pf_72h_%Growth_Rep1): 2.64%
activity at 2 µg/mL ([1]; P. falciparum, screen at 2 μg/mL, replicate 2, read-out: Pf_72h_%Growth_Rep2): 2.16%
activity at 2 µg/mL ([2]; P. falciparum, 120 h, screen at 2 μg/mL, replicate 1, read-out: Pf_120h_%Growth_Rep1): 0.77%
activity at 2 µg/mL ([2]; P. falciparum, 120 h, screen at 2 μg/mL, replicate 2, read-out: Pf_120h_%Growth_Rep2): 5.18%
percent parasite growth at 2 µg/mL ([3]; T. gondii, screen at 2 μg/mL, replicate 1, read-out: Tg_72h_%Growth_Rep1): -1.66%
percent parasite growth at 2 µg/mL ([3]; T. gondii, screen at 2 μg/mL, replicate 2, read-out: Tg_72h_%Growth_Rep2): 0.56%

O=C(N[C@H](CO)[C@H](O)c1ccc([N+](=O)[O-])cc1)C(Br)Br [Bromamphenicol]
Pf_72h_%Growth_Rep1 [1, 8]: 93.46%
Pf_72h_%Growth_Rep2 [1, 9]: 85.21%
Pf_120h_%Growth_Rep1 [2, 10]: 132.78%
Pf_120h_%Growth_Rep2 [2, 11]: 78.55%
Tg_72h_%Growth_Rep1 [3, 12]: 80.35%
Tg_72h_%Growth_Rep2 [3, 13]: 93.07%
